In PubChem BioAssay AID1919009 (Molecular Pharmacology Branch, DTP, NCI, 2023):
Values joined by “and” are separate entries in the source; they are usually repeats but may differ in a detail not shown here. Equal entries are not always repeated.

System: K24384-001-R-PDC complex spheroid growth
Test: Anticancer human tumor K24384-001-R-PDC patient-derived pancreatic adenocarcinoma cell line growth inhibition [AhR]
Settings: for viability, T/C: stronger effect = lower value
Text: Multicellular complex tumor spheroid response to aryl hydrocarbon receptor antagonists in combination with a variety of drugs and investigational agents in selected tumor cell lines
The current study was undertaken to assess response to aryl hydrocarbon receptor antagonists in combination with standard-of-care drugs and investigational agents in solid tumor complex spheroid models. Complex spheroids include a stromal component modeled by human endothelial cells (HUVEC) and fibroblasts modeled by human mesenchymal stem cells (MSCs). The concentration ranges selected for each drug and investigational agent were based upon clinically achievable concentrations if the clinical Cmax of the agent was known.
Compounds. The drugs and investigational agents: BAY 2416964 (NSC825713), GNF351 (NSC835774), CH-223191 (NSC835775), CPI-455 (NSC825282), aza-TdCyd (NSC777586), decitabine (NSC127716), belinostat (NSC758774), entinostat (NSC756642), pevonedistat (NSC761192), tazemetostat (NSC777109), talazoparib (NSC765396), olaparib (NSC753686), selinexor (NSC780203), nedisertib (M3814, NSC802822), bortezomib (NSC756655), venetoclax (NSC766270), doxorubicin (NSC123127), elimusertib (BAY189344, NSC800525), ceralasertib (AZD6738, NSC777638), TAK-243 (NSC785004), alisertib (NSC759677), etoposide (NSC141540), topotecan (NSC609699), eribulin (NSC707389), gemcitabine (NSC613327), carboplatin (NSC241240), cisplatin (NSC119875), and SN-38 (NSC673596) were obtained from the National Cancer Institute (NCI) Developmental Therapeutics Program Chemical Repository (32). The FDA-approved anticancer drug set is available from the Developmental Therapeutics Program at https://dtp.cancer.gov/organization/dscb/obtaining/available plates.htm. […] The stock solutions were prepared in dimethyl sulfoxide (DMSO, Sigma-Aldrich, St. Louis, MO, cat. D2650), except for the platinum compounds which were prepared in saline (Quality Biological, Gaithersburg, MD, cat. 114-055-101), at 800-fold the tested concentration and stored at -70 degrees C prior to their use. All drugs and investigational agents were tested over a range starting from a high concentration at or near the clinical Cmax and decreasing in half-log increments. If the clinical Cmax for an agent had not been determined, the highest concentration tested was 10 microM (Table 1).
Cell Culture. All cells were maintained in an incubator at 37 degrees C and 5% CO2 with 95% humidity. The PDC lines were cultured according to standard operating procedures established by the NCI PDMR (https://pdmr.cancer.gov). Briefly, all PDCs were thawed and cultured in Matrigel-coated flasks prepared with a working solution of 1X Ham's F-12 nutrient mix, without supplementation (Invitrogen, Waltham, MA, cat. 11765054), 100 U/mL penicillin-streptomycin (Invitrogen, cat. 15140122), and 2.5% Matrigel (Corning Inc., Corning, NY, cat. 354248) for the first three passages. All PDCs were cultured in complete DMEM/F-12 media containing advanced DMEM/F-12 (Invitrogen, cat. 12634028), 4.9% defined fetal bovine serum, heat inactivated (HyClone Laboratories Inc., Logan, UT, cat. SH30070.03HI), 389 ng/mL hydrocortisone (Sigma-Aldrich, cat. H4001), 9.7 ng/mL human EGF recombinant protein (Invitrogen, cat. PHG0313), 23.4 microg/mL adenine (Sigma-Aldrich, cat. A2786), 97.3 U/mL penicillin-streptomycin (Invitrogen, cat. 15140122), 1.9 mM L-glutamine (Invitrogen, cat. 25030081), and 9.7 microM Y-27632 dihydrochloride (Tocris Bioscience, Bristol, United Kingdom, cat. 1254). The PDCs were cultured in complete DMEM/F12 media without 10 microM Y-27632 dihydrochloride for at least two passages prior to the screen. The established cell lines NCI-H1341 and […] were cultured in DMEM/F-12, HEPES (Invitrogen, cat. 11330032), 5% defined fetal bovine serum (HyClone Laboratories Inc., cat. SH30070.03), ITS premix universal culture supplement [insulin (5 microg/mL), transferrin (5 microg/mL), and selenious acid (5 ng/mL)] […]
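For viability, T/C in this document: percent of DMSO vehicle-treated spheroid viability set as 100%.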

| Structure (SMILES) | viability, T/C (compound 0.0316 µM) | viability, T/C (compound 0.1 µM) | viability, T/C (compound 0.316 µM) | viability, T/C (compound 1 µM) | viability, T/C (compound 3.16 µM) | viability, T/C (compound 10 µM) | IC50 (curve of compound) | other results |
| --- | --- | --- | --- | --- | --- | --- | --- | --- |
| COc1cccc2c1C(=O)c1c(O)c3c(c(O)c1C2=O)CC(O)(C(=O)CO)CC3OC1CC(N)C(O)C(C)O1 (stereo not drawn) | 55.9% and 53.8% and 60.3% | 42.6% and 43.3% and 55.6% | 27.5% and 27% and 27.3% | 7.51% and 8.21% and 8.1% | 2.73% and 2.56% and 3.17% | 7.73% and 8.61% and 11.3% | 55.5 nM and 48.3 nM and 127 nM |  |
| Cc1ccccc1N=Nc1ccc(NC(=O)c2ccnn2C)c(C)c1 |  |  |  |  |  |  |  | IC50 (compound alone, run of 06/14/2022): > 10000 nM |
| Cc1cncc(-c2nc(NCCc3c[nH]c4ccccc34)c3ncn(C(C)C)c3n2)c1 |  |  |  |  |  | 10.4% [middle of 20 runs] |  | IC50 (compound alone, run of 06/06/2022): 5.54 µM [middle of 23 runs] |
| Cn1ncnc1C1c2n[nH]c(=O)c3cc(F)cc(c23)NC1c1ccc(F)cc1 (stereo not drawn) | 97% and 97.8% and 98.7% | 82% and 81.5% and 75.4% |  |  |  |  | > 100 nM | viability, T/C (compound 0.000316 µM): 104% and 93.7% and 94.2%; viability, T/C (compound 0.001 µM): 117% and 105% and 102%; viability, T/C (compound 0.00316 µM): 93.1% and 104% (2×); viability, T/C (compound 0.01 µM): 91.7% and 102% and 105% |
| NS(=O)(=O)OCC1CC(n2ccc3c(NC4CCc5ccccc54)ncnc32)CC1O (stereo not drawn) | 102% and 101% and 100% | 119% and 96.5% and 107% | 107% (2×) and 102% | 95.7% and 59% and 75.3% | 40.4% and 32.9% and 49.2% | 27.5% and 21.6% and 24.1% | 2590 nM and 1420 nM and 2770 nM |  |
| Nc1ccccc1NC(=O)c1ccc(CNC(=O)OCc2cccnc2)cc1 | 94% and 112% and 106% | 98% and 108% and 107% | 85% and 93.4% and 96.5% | 78.2% and 67.5% and 60.9% | 43.8% and 43.9% and 45.6% | 8.72% and 6.99% and 9.95% | 2590 nM and 2280 nM and 2140 nM |  |
| Nc1ccn(C2OC(CO)C(O)C2(F)F)c(=O)n1 (stereo not drawn) | 75.8% and 84.6% and 71% | 67.7% and 76.7% and 59.5% | 50.6% and 52.6% and 41.6% | 42.8% and 39.7% and 32.8% | 37.3% and 40.7% and 22.7% | 28.5% and 31.3% and 20.2% | 458 nM and 419 nM and 191 nM |  |
| Nc1ncn(C2CC(O)C(CO)O2)c(=O)n1 (stereo not drawn) | 108% and 95.7% and 101% | 95.2% and 101% and 82.9% | 87.2% and 88.8% and 84.9% | 79.4% and 79.5% and 76.8% |  |  | > 1000 nM | viability, T/C (compound 0.00316 µM): 111% and 99.4% and 104%; viability, T/C (compound 0.01 µM): 94.1% and 108% and 112% |
| Nc1ncn(C2CC(O)C(CO)S2)c(=O)n1 (stereo not drawn) |  |  |  |  |  |  | > 300 nM | viability, T/C (compound 0.000949 µM): 110% and 102% and 115%; viability, T/C (compound 0.003 µM): 104% and 111% and 121%; viability, T/C (compound 0.00949 µM): 105% and 93% and 90.2%; viability, T/C (compound 0.03 µM): 98% and 87.8% and 92.5%; viability, T/C (compound 0.0949 µM): 80.2% and 77.9% and 76.2%; viability, T/C (compound 0.3 µM): 81.4% and 64.2% and 70.1% |
| O=C(C=Cc1cccc(S(=O)(=O)Nc2ccccc2)c1)NO | 104% and 118% and 108% | 104% and 115% and 114% | 96.2% and 116% and 99.6% | 78.5% and 87.3% and 81.8% | 34.4% and 35.4% and 29.5% | 8.12% and 8.37% and 2.97% | 2100 nM and 2280 nM and 2000 nM |  |
| O=C(C=Cn1cnc(-c2cc(C(F)(F)F)cc(C(F)(F)F)c2)n1)NNc1cnccn1 |  |  |  |  |  |  | 246 nM and 245 nM and 422 nM | viability, T/C (compound 0.00949 µM): 103% and 108% and 124%; viability, T/C (compound 0.03 µM): 102% and 118% and 111%; viability, T/C (compound 0.0949 µM): 83.7% and 73.7% and 79.4%; viability, T/C (compound 0.3 µM): 42.4% and 48.4% and 54.7%; viability, T/C (compound 0.949 µM): 29.9% and 28.1% and 41.4%; viability, T/C (compound 3 µM): 22.9% and 24.3% and 29.5% |
| O=C(c1cc(Cc2n[nH]c(=O)c3ccccc23)ccc1F)N1CCN(C(=O)C2CC2)CC1 | 104% and 103% and 116% | 132% and 100% and 105% | 105% and 95.4% and 115% | 95.4% and 94.5% and 90.4% | 88.2% and 96.2% and 90.5% | 82.8% and 62.4% and 76% | > 10000 nM |  |
